Data: ChEMBL document CHEMBL1201862, “PubChem BioAssay data set” (2004)
“And” between values parts separate entries of the source, which are not always exact repeats. Equal values may be shown once.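 The compound was tested at five concentrations on cells cultured in 96-well plates, with a 48-hour exposure period. The concentration for 50% growth inhibition is given as GI50.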 The source made the active and inactive calls. Rule as the data show it: active = GI50 up to about 1.1 µM and inactive = higher.

Experiments:
Experiment in all cases: growth of human tumour cells (NCI), 48 h
COLO 205 = test system: COLO 205
DU-145 = test system: DU-145
EKVX = test system: EKVX
M14 = test system: M14
MDA-MB-231 = test system: MDA-MB-231
MOLT-4 = test system: MOLT-4
NCI-H226 = test system: NCI-H226
NCI-H23 = test system: NCI-H23
NCI-H460 = test system: NCI-H460
NCI-H522 = test system: NCI-H522
RPMI-8226 = test system: RPMI-8226
SK-MEL-28 = test system: SK-MEL-28
SK-MEL-2 = test system: SK-MEL-2
SNB-19 = test system: SNB-19
SNB-75 = test system: SNB-75
SR = test system: SR
SW-620 = test system: SW-620
A498 = test system: A498
T47D = test system: T47D

Measured: GI50

[N-]=[N+]=C(C(=O)CN1CCCC1=O)S(=O)(=O)c1ccccc1
inactive: COLO 205 > 100 µM | DU-145 > 100 µM | EKVX > 100 µM | M14 > 100 µM | MDA-MB-231 > 100 µM | MOLT-4 > 100 µM | NCI-H226 > 100 µM | NCI-H23 > 100 µM | NCI-H460 > 100 µM | NCI-H522 > 100 µM | RPMI-8226 > 100 µM | SK-MEL-28 > 100 µM | SK-MEL-2 > 100 µM | SNB-19 > 100 µM | SNB-75 > 100 µM | SR > 100 µM | SW-620 > 100 µM

C=C1CC2CC(=O)C(O)C(C1)C2 (stereo not given)
inactive: A498 > 100 µM | COLO 205 > 100 µM | DU-145 > 100 µM | EKVX > 100 µM | M14 > 100 µM | MOLT-4 > 100 µM | NCI-H226 > 100 µM | NCI-H23 90.8 µM | NCI-H460 > 100 µM | NCI-H522 > 100 µM | RPMI-8226 > 100 µM | SNB-75 58.5 µM | SR > 100 µM | SW-620 > 100 µM | T47D 69 µM

CCOP(=O)(OCC)C(C)(CC)NC(=O)C(C(F)(F)F)C(F)(F)F (stereo not given)
inactive: A498 > 100 µM | COLO 205 > 100 µM | DU-145 > 100 µM | EKVX > 100 µM | M14 > 100 µM | MOLT-4 > 49.3 µM and 63.4 µM | NCI-H226 > 100 µM | NCI-H23 > 100 µM | NCI-H460 > 100 µM | RPMI-8226 33.3 µM and 21.9 µM | SK-MEL-28 > 100 µM | SK-MEL-2 > 100 µM | SNB-19 > 100 µM | SR 63.4 µM and 33.8 µM | SW-620 > 100 µM and 92 µM

Nc1ccc(S(=O)(=O)NCCS(=O)(=O)O)cc1
inactive: A498 > 100 µM | DU-145 > 100 µM | EKVX > 100 µM | M14 > 100 µM | MDA-MB-231 > 100 µM | MOLT-4 > 100 µM | NCI-H226 > 100 µM | NCI-H23 > 100 µM | NCI-H460 > 100 µM | NCI-H522 > 100 µM | SK-MEL-28 > 100 µM | SK-MEL-2 > 100 µM | SNB-19 > 100 µM | SNB-75 > 100 µM | SR > 100 µM | SW-620 > 100 µM

CN(C)C(=O)Nc1c([N+](=O)[O-])cc(C(F)(F)F)cc1[N+](=O)[O-]
inactive: A498 > 100 µM | COLO 205 25 µM | EKVX > 100 µM | M14 44.6 µM | MOLT-4 78.5 µM | NCI-H226 > 100 µM | NCI-H23 27.7 µM | NCI-H460 42.9 µM | NCI-H522 29.9 µM | RPMI-8226 41.1 µM | SK-MEL-28 > 100 µM | SK-MEL-2 58.7 µM | SNB-19 > 100 µM | SNB-75 74 µM | SR 58.7 µM | SW-620 32.7 µM

COc1ccc(-c2cc3ccccc3[nH]c2=O)cc1OC
inactive: COLO 205 > 100 µM | EKVX > 100 µM | M14 > 100 µM | MOLT-4 > 100 µM | NCI-H226 > 100 µM | NCI-H23 > 100 µM | NCI-H460 > 100 µM | NCI-H522 > 100 µM | RPMI-8226 > 100 µM | SK-MEL-28 > 100 µM | SK-MEL-2 > 100 µM | SNB-19 > 100 µM | SNB-75 > 100 µM | SR > 100 µM | SW-620 > 100 µM

NC1=NC(=O)C2(NN1)c1ccccc1-c1ccccc12
inactive: A498 3.94 µM | COLO 205 > 10 µM | M14 > 10 µM | MOLT-4 > 10 µM | NCI-H226 > 10 µM | NCI-H23 > 10 µM | NCI-H460 > 10 µM | RPMI-8226 > 10 µM | SK-MEL-28 > 10 µM | SK-MEL-2 > 10 µM | SNB-19 > 10 µM | SNB-75 > 10 µM | SR > 10 µM | SW-620 > 10 µM | T47D 2.42 µM

C[C@@]1(Br)C[C@@](C)(Cl)[C@@H](Br)CC1/C=C/Cl (stereo not given in full)
inactive: COLO 205 15.6 µM | M14 16.6 µM | MDA-MB-231 20.1 µM | MOLT-4 13.3 µM | NCI-H226 10.8 µM | NCI-H23 28.6 µM | NCI-H460 28.6 µM | RPMI-8226 16 µM | SK-MEL-28 21.9 µM | SK-MEL-2 16.7 µM | SNB-19 18.6 µM | SNB-75 12.8 µM | SR 14.1 µM | SW-620 26.9 µM

O=P(O)(CN1CCN(CP(=O)(O)c2ccccc2)CCN(CP(=O)(O)c2ccccc2)CC1)c1ccccc1
inactive: A498 9.16 µM | COLO 205 69.3 µM | DU-145 > 100 µM | EKVX > 100 µM | MOLT-4 26.4 µM | NCI-H226 > 100 µM | NCI-H23 > 100 µM | NCI-H460 36 µM | RPMI-8226 51.4 µM | SK-MEL-28 > 100 µM | SNB-19 > 100 µM | SNB-75 > 100 µM | SW-620 45.6 µM | T47D > 100 µM

CC/C(CC(=O)CCC(=O)Nc1c(C)cccc1C)=N\NC(=O)NN
inactive: A498 > 100 µM | COLO 205 > 100 µM | EKVX > 100 µM | M14 > 100 µM | MOLT-4 > 100 µM | NCI-H23 > 100 µM | NCI-H460 > 100 µM | SK-MEL-28 > 10 µM | SK-MEL-2 > 100 µM | SNB-19 > 100 µM | SR > 100 µM | SW-620 > 100 µM

NC(N)=NCCC[C@H](N)C(=O)NCC(=O)N[C@@H](CC(=O)O)c1ncc(NC(=O)C(F)(F)F)o1
inactive: A498 > 25 µM | COLO 205 > 25 µM | DU-145 > 25 µM | EKVX > 25 µM | M14 > 25 µM | MOLT-4 > 25 µM | NCI-H226 > 25 µM | NCI-H23 > 25 µM | NCI-H460 > 25 µM | NCI-H522 > 25 µM | SK-MEL-28 > 25 µM | SK-MEL-2 > 25 µM | SNB-75 > 25 µM | SW-620 > 25 µM | T47D > 25 µM

COC(=O)CCC1CCc2c(OC)ccc(O)c2C1=O (stereo not given)
inactive: A498 > 100 µM | COLO 205 > 100 µM | EKVX > 100 µM | M14 > 100 µM | MOLT-4 > 100 µM | NCI-H226 28.7 µM | NCI-H23 > 100 µM | NCI-H460 > 100 µM | NCI-H522 > 100 µM | RPMI-8226 > 100 µM | SK-MEL-28 > 100 µM | SK-MEL-2 > 100 µM | SNB-19 > 100 µM | SNB-75 66.4 µM | SR > 100 µM | SW-620 > 100 µM

CSC1=N/C(=C\c2cccs2)C(=O)N1CN1CCCCC1
inactive: A498 > 100 µM | COLO 205 70.6 µM | DU-145 > 100 µM | EKVX 24 µM | M14 > 100 µM | MDA-MB-231 > 100 µM | MOLT-4 64.9 µM | NCI-H226 57.8 µM | NCI-H23 > 100 µM | RPMI-8226 22.1 µM | SK-MEL-28 > 100 µM | SK-MEL-2 > 100 µM | SNB-75 31.9 µM | SR 32.2 µM | SW-620 36.9 µM
